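48-hour exposure; five concentrations; linearly interpolated endpoints. Here, GI50 denotes the concentration required for 50% inhibition of growth.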 Activity calls are given as the source filed them. Cut-off read from the data, not from the text of the source: active = GI50 up to about 1.1 µM and inactive = higher.
Columns and labels:
Experiment in all cases: NCI anticancer screen, dose series, 48 h
786-0 = tested on: 786-0
A549 = tested on: A549
HL-60 = tested on: HL-60
HOP-62 = tested on: HOP-62
K562 = tested on: K562
KM12 = tested on: KM12
RPMI-8226 = tested on: RPMI-8226
SF-295 = tested on: SF-295
SK-MEL-2 = tested on: SK-MEL-2
SK-MEL-5 = tested on: SK-MEL-5
SK-OV-3 = tested on: SK-OV-3
SNB-75 = tested on: SNB-75
SR = tested on: SR
U-251 = tested on: U-251
UACC-257 = tested on: UACC-257
OVCAR-5 = tested on: OVCAR-5
NCI-H226 = tested on: NCI-H226

SMILES | GI50 (786-0) | GI50 (A549) | GI50 (HL-60) | GI50 (HOP-62) | GI50 (K562) | GI50 (KM12) | GI50 (RPMI-8226) | GI50 (SF-295) | GI50 (SK-MEL-2) | GI50 (SK-MEL-5) | GI50 (SK-OV-3) | GI50 (SNB-75) | GI50 (SR) | GI50 (U-251) | GI50 (UACC-257) | GI50 (OVCAR-5) | GI50 (NCI-H226)
OC1CCC[C@@H]1Sc1ccccc1 (some centres undefined) | > 100 µM (inactive) | > 100 µM (inactive) | > 100 µM (inactive) | > 100 µM (inactive) | > 100 µM (inactive) | > 100 µM (inactive) | > 100 µM (inactive) | > 100 µM (inactive) | > 100 µM (inactive) | > 100 µM (inactive) | > 100 µM (inactive) | > 100 µM (inactive) | > 100 µM (inactive) | > 100 µM (inactive) | > 100 µM (inactive) | – | –
CC1=C2C=CC(=O)C[C@@]2(C)CCC1 | > 100 µM (inactive) | > 100 µM (inactive) | > 100 µM (inactive) | > 100 µM (inactive) | > 100 µM (inactive) | > 100 µM (inactive) | > 100 µM (inactive) | > 100 µM (inactive) | > 100 µM (inactive) | > 100 µM (inactive) | > 100 µM (inactive) | 69.2 µM (inactive) | – | > 100 µM (inactive) | > 100 µM (inactive) | > 100 µM (inactive) | –
COc1ccc2[nH]c3c(C)c4cc[n+](COC(=O)c5ccccc5)cc4c(C)c3c2c1 | 0.138 µM (active) | 0.269 µM (active) | 0.628 µM (active) | 2.66 µM (inactive) | 0.221 µM (active) | 0.61 µM (active) | 0.144 µM (active) | 0.184 µM (active) | – | – | 1.22 µM (inactive) | 0.703 µM (active) | 0.0313 µM (active) | 0.392 µM (active) | 1.19 µM (inactive) | 0.879 µM (active) | –
CC(=O)OC1(C#N)CC2OC1C1C2N=NN1C(=O)OC(C)(C)C (centres undefined) | – | 34.4 µM (inactive) | – | > 100 µM (inactive) | 33.5 µM (inactive) | – | 39.9 µM (inactive) | – | 23.4 µM (inactive) | 35.3 µM (inactive) | – | 31.8 µM (inactive) | 32.8 µM (inactive) | – | 35.4 µM (inactive) | 54.6 µM (inactive) | –
CC(C)(O)[C@H](CCO)O[Si](c1ccccc1)(c1ccccc1)C(C)(C)C | – | 7.35 µM (inactive) | 4.99 µM (inactive) | – | 7.74 µM (inactive) | 11.6 µM (inactive) | 10.4 µM (inactive) | 6.35 µM (inactive) | 15.1 µM (inactive) | 14.2 µM (inactive) | 12.1 µM (inactive) | 10.9 µM (inactive) | 4.93 µM (inactive) | 12.4 µM (inactive) | 15.5 µM (inactive) | 14.9 µM (inactive) | –
NNc1nnc(-c2ccccc2)nc1Cc1ccccc1 | – | 6.41 µM (inactive) | 4.32 µM (inactive) | 2.69 µM (inactive) | 5.65 µM (inactive) | 8.3 µM (inactive) | – | – | 6.35 µM (inactive) | 12.3 µM (inactive) | 14.3 µM (inactive) | – | 4.43 µM (inactive) | 6.87 µM (inactive) | – | 6.65 µM (inactive) | 2.37 µM (inactive)
CCCN1CN(C(C(=O)N[C@@H]2C(=O)N3C(C(=O)O)=C(C)CSC23)c2ccccc2)CSC1=S (some centres undefined) | > 100 µM (inactive) | > 100 µM (inactive) | 86.9 µM (inactive) | > 100 µM (inactive) | 47.6 µM (inactive) | > 100 µM (inactive) | 40.9 µM (inactive) | > 100 µM (inactive) | > 100 µM (inactive) | > 100 µM (inactive) | > 100 µM (inactive) | > 100 µM (inactive) | – | > 100 µM (inactive) | > 100 µM (inactive) | > 100 µM (inactive) | –
COC(=O)CCC(NC(=S)N/N=C(\C)c1cccs1)C(=O)OC (centres undefined) | > 100 µM (inactive) | > 100 µM (inactive) | – | > 100 µM (inactive) | > 100 µM (inactive) | > 100 µM (inactive) | – | > 100 µM (inactive) | > 100 µM (inactive) | > 100 µM (inactive) | > 100 µM (inactive) | > 100 µM (inactive) | – | > 100 µM (inactive) | > 100 µM (inactive) | > 100 µM (inactive) | > 100 µM (inactive)
